The text below walks through data of ChEMBL document CHEMBL1201862, “PubChem BioAssay data set” (2004).

What all share (assay): NCI anticancer screen, dose series, 48 h
In assay [1] the test system is CAKI-1.
Assay [2] has as its system HCC 2998.
For assay [3], the system named is HCT-116.
Assay [4] has as its system K562.
Assay [5] concerns KM12.
Assay [6] deals with LXFL 529.
In assay [7] the test system is M14.
In assay [8] the test system is MCF7.
In assay [9] the test system is NCI-H226.
The subject of assay [10] is NCI-H522.
Assay [11] concerns OVCAR-3.
Assay [12] concerns OVCAR-8.
Assay [13] deals with PC-3.
Assay [14] has as its system RXF 393.
Assay [15] concerns SF-295.
In assay [16] the test system is SK-MEL-2.
Assay [17] deals with SNB-19.
Assay [18] has as its system SR.
The subject of assay [19] is U-251.
For assay [20], the system named is UO-31.

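Protocol summary: plate cells (96-well), add compound at 5 concentrations, incubate 48 h, interpolate endpoints linearly. GI50 marks 50% less growth.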 The source made the active and inactive calls. Rule as the data show it: active = GI50 up to about 1.1 µM and inactive = higher.

For the molecule `CCN(CC)c1ccc(/C=C2/C[N+](C)(C)C/C(=C/c3ccc(N(CC)CC)cc3)C2=O)cc1`, the GI50 in assay [1] was > 48 µM (inactive); in [2] it was 2.42 µM (inactive); in assay [3] it was 2.3 µM (inactive); in [4], 1.01 µM (active); in assay [5], 1.23 µM (inactive); in assay [6] it was 1.1 µM (active). For the same molecule, the GI50 is 2.4 µM (inactive) in assay [7]; 1.96 µM (inactive) in assay [8]; 6.21 µM (inactive) in [9]; 2.06 µM (inactive) in [10]; 2.12 µM (inactive) in assay [11]; 3.32 µM (inactive) in [12]. The GI50 was 3.05 µM (inactive) in assay [13]; 2.77 µM (inactive) in assay [14]; 11.9 µM (inactive) in assay [15]; 1.87 µM (inactive) in assay [16]; 3.19 µM (inactive) in assay [17]; 0.968 µM (active) in assay [18]. For the same molecule, the values for the GI50 in assay [19] and in assay [20] were 2.37 µM (inactive) and > 58.9 µM (inactive), respectively.
Regarding `O=S1(=O)CS(=O)(=O)OCCO1`, the GI50 was 38.4 µM (inactive) in assay [1]; 46.6 µM (inactive) in assay [2]; 37.7 µM (inactive) in [3]; 60 µM (inactive) in assay [4]; 51.4 µM (inactive) in assay [5]; > 100 µM (inactive) in assay [6]. Moreover, the GI50 in assay [7] is 47.3 µM (inactive); in assay [8], 51.8 µM (inactive); in assay [9] it was 41.4 µM (inactive); in assay [10] it was 48.3 µM (inactive); in assay [11] it was 40.3 µM (inactive); in assay [12], 55.3 µM (inactive). Also, the GI50 in [13] was 82 µM (inactive); in assay [14] it was 41.6 µM (inactive); in assay [15], 13.2 µM (inactive); in assay [16], 50.8 µM (inactive); in assay [17], 31.7 µM (inactive); in [18], 153 µM (inactive). Besides, the GI50 in [19] is 21.3 µM (inactive); in assay [20] it was 61 µM (inactive).
As to `O=Cc1ccc(-c2cccs2)s1`, the GI50 was 13.8 µM (inactive) in assay [1]; 72.8 µM (inactive) in [2]; 39.2 µM (inactive) in [3]; 34.3 µM (inactive) in [4]; > 100 µM (inactive) in [5]; 1.76 µM (inactive) in [6]. In addition, the GI50 in assay [7] was > 100 µM (inactive); in assay [8], 1.16 µM (inactive); in [9], 1.94 µM (inactive); in assay [10], > 100 µM (inactive); in assay [11] it was 12.4 µM (inactive); in [12], > 100 µM (inactive). The GI50 in [13] was > 100 µM (inactive); in assay [14], 18.4 µM (inactive); in [15], > 100 µM (inactive); in assay [16] it was > 100 µM (inactive); in assay [17] it was > 100 µM (inactive); in assay [18], 77.4 µM (inactive). Further, the GI50 in [19] is 12.2 µM (inactive); in assay [20], 64 µM (inactive).
With `CN(C)CCNc1ccc2nnn3c4ccccc4c(=O)c1c23`, the GI50 was 2.5 µM (inactive) in [1]; 7.13 µM (inactive) in [2]; 1.56 µM (inactive) in assay [3]; 2.86 µM (inactive) in assay [4]; 3.85 µM (inactive) in [5]; 3.6 µM (inactive) in [6]. For the same molecule, the GI50 in assay [7] was 3.07 µM (inactive); in assay [8], 4.32 µM (inactive); in [9] it was 1.74 µM (inactive); in [10], 2.64 µM (inactive); in assay [11], 3.36 µM (inactive); in [12] it was 2.21 µM (inactive). The GI50 in assay [13] was 2.41 µM (inactive); in assay [14] it was 5.51 µM (inactive); in assay [15], 3.57 µM (inactive); in assay [16], 3.7 µM (inactive); in assay [17], 4.56 µM (inactive); in assay [18] it was 2.34 µM (inactive). The GI50 in [19] is 1.95 µM (inactive); in assay [20], 1.32 µM (inactive).
